Measured values as given in patent US6680025B2, “Device and method for photoactivation” (Cerus Corporation, priority 1989, dated 2004).
Marks after values point to notes of the source that are not given here.

Tests used:
Taq I DNA polymerase = test: Primer extension on site-specific monoadducted 71-mer, Taq polymerase; type: biochemical, Thermus aquaticus; details: for Taq polymerase extension on 71-mer monoadduct template: 55° C., single extension
Method: In this experiment, monoadducted 71-mers (as well as unmodified 71-mers) were used in template-dependent enzymatic extension. AMIP, AMDMIP, and MIP 71-mer monoadducts were made as in Example 42. Extension was carried out as in Example 43 except that in this experiment, Taq I DNA polymerase, a thermostable DNA polymerase isolated from Thermus aquaticus (Stratagene, Inc., La Jolla, Calif.) was assessed for its ability to read past isopsoralens.
The reaction mixture was in 80 μl total volume and comprised 1×Taq buffer, 200 μM each of dNTP's, 0.05 units of Taq per μl of reaction volume; 1×10^−9 M in 71-mer MA; 1×10^−8 M in ^32P-labelled SK-39. Each reaction was set up with everything except Taq polymerase. The samples were initially heated to 95° C. for 5 mins, then incubated at 55° C. for 3 mins. The extension reaction was initiated by addition of Tas polymerase. At the indicated time points (0.5, 1.0, 5.0 mins), 20 μl of the reaction mix was removed to a tube containing 1 μl of 0.5 M EDTA to stop the reaction. All products were analyzed on a 20% polyacrylamide, 7 M urea gel followed by autoradiography.
This experiment investigated whether blocking of Tag polymerase by monoadducts is complete or whether monoadducts can be bypassed by the enzyme. In order to view the process of bypass syrthesis, it is necessary to cycle the extension reaction of the primer with the 71-mer templates. Cycling in this case consists of mixing the primer with the 71-mer template, adding Taq polymerase and appropriate reagents, extending, heating to induce strand separation, reannealing of the primer to the 71-mer template, extending again, and subsequent stand separation. This process can be repeated as necessary. During this process, only the complement of the 71-mer template is being synthesized. It is accumulating in a linear fashion with the number of thermal cycles (in contrast to PCR where both strands are being synthesized and accumulate geometrically).
The templates and reaction conditions were as in Example 44 above except that three samples were used for each monoadduct and each sample was tested under different conditions:
Samples (1): one sample for each monoadduct was used to carry out extension at 55° C. as in Example 43;
Samples (2): one sample for each monoadduct was used to carry out extension by the following series of steps: denaturing at 95° C.; incubating for 30 seconds at 55° C.; adding Taq polymerase for 3 minutes at 55° C.; cooling the reaction for 1 minute at 7° C.; stopping the reaction with EDTA for one minute at 95° C.
Samples (3): one sample for each monoadduct was used to carry out extension by repeating the following series of steps nine times: denaturing at 95° C.; incubating for 30 seconds at 55° C.; adding Taq polymerase for 3 minutes at 55° C.; cooling the reaction for 1 minute at 7° C. At the end, the reaction is stopped with EDTA for one minute at 95° C.
To investigate this question further, a new 5-MIP monoadducted 71-mer was prepared by repurification of the HPLC purified 5-MIP ronoadducted 15-mer by PAGE. In this way, more of the non-monoadducted 15-mer was removed prior to ligation. The purified 71-mer was then used as template in an extension experiment as described in Example 45. After 10 cycles, there was still evidence of extension product (FIG. 34).
Monoadducted 71-mer was constructed as described, but for HMT. Extension was carried out and analyzed as before on PAGE. […] Full length 71-mer is not made and a shorter strand corresponding to the position of the HMT adduct was made.

[1] = Solubility of photoreactive compounds in 1×TE; type: physicochemical; details: excess compound heated 50-70° C., stirred at room temperature, filtered; optical density
Method: The solubilities of AMIP, AMDMIP, DMIP, MIP and isopsoralen (IP) were determined experimentally according to the scheme set forth in FIG. 5. To perform the solubility measurement, it was first necessary to establish known optical densities for a 1 μg/ml solution of each compound. These were determined by preparing either ethanolic or aqueous stocks of each compound at known concentrations in 1×TE, then measuring the optical density of each solution. From this information, the absorption of a 1 μg/ml solution was computed. Alternatively, the extinction coefficient may be thus determined and used in the same fashion. In this manner, the following absorption data was collected:
Following this step, undissolved compound was removed by filtration using a 0.2 u nylon-66 syringe filter (Arco LC13; Gelman). The concentration of the remaining soluble compound was then determined by measuring the optical density of the filtrate and computing the solubility from the known optical density of a 1 μg/ml solution of that compound. The solubility of the compounds was thus determined to be as follows: […]

calf thymus DNA = test: Covalent photobinding to calf thymus DNA (Example 38); type: binding; details: for actual concentration obtained empirically: nominal 100 μg/ml in calf thymus DNA/1×TE, counted after sitting overnight at room temperature
Method: FIG. 17 can again be referred to as a flow chart schematically showing the manner in which covalent binding was measured for the compounds synthesized by the methods of the present invention. ^3H-AMIP (3.1×10^5 cpm/μg), ^3H-AMDMIP (2.2×10^5 cpm/μg), and ^3H-MIP (2.1×10^5 cpm/μg) were added to 300 μl of calf thymus DNA (Sigma) in 1×TE buffer. All of the isopsoralen compounds were added at a nominal concentration of 100 μg/ml. However, actual concentrations obtained empirically (counted after sitting overnight at room temperature) were: ^3H-AMIP (105 μg/ml), ^3H-AMDMIP (115 μg/ml), and ^3H-MIP (<10 μg/ml).
To assess binding, three samples were prepared for each compound; two were irradiated (15 minutes at 25° C. with the CE-I device) while one was unirradiated as a control. Following irradiation, the samples were extracted four times with CHCl3 then precipitated twice. The final pellet was brought up in 2 ml of 1×TE buffer and resuspended by shaking at 40° C. overnight. 50 μl of each sample was then diluted to 0.5 mls with H2O. The concentration of DNA was determined by UV absorption (A260) and the amount of covalently bound isopsoralen (“adduct”) was determined by scintillation counting (3×100 μl aliquots). From these numbers, the following binding ratios (adducts: DNA base pair) were determined: […]

[2] = PAGE-repurified monoadducted 71-mer, after 10 cycles

| Structure (SMILES) | Taq polymerase extension on 71-mer monoadduct template (Taq I DNA polymerase) | Solubility in 1 × TE [1] | actual concentration obtained empirically (calf thymus DNA) [µg/mL] | modification density relative to that provided by AMDMIP (calf thymus DNA; photobinding at the same concentration) [%] | full length extension product as share of total extension products (Taq I DNA polymerase; [2]) [%] | truncated extension products as share of total (Taq I DNA polymerase; [2]) [%] |
| --- | --- | --- | --- | --- | --- | --- |
| NCc1cc2occc2c2oc(=O)ccc12 [AMIP, 5-Aminomethylisopsoralen] | stops at positions that are shorter than the full length 71-mer product | 21,000 ug/ml | 105 | 43 | – | – |
| Cc1oc2ccc3c(C)cc(=O)oc3c2c1CN [AMDMIP, 4′-Aminomethyl-4,5′-dimethylisopsoralen] | stops at positions that are shorter than the full length 71-mer product | >22,700* ug/ml | 115 | – | – | – |
| Cc1cc2occc2c2oc(=O)ccc12 [MIP, 5-Methylisopsoralen] | stops at positions that are shorter than the full length 71-mer product | nd (nd = not detectable (solubility was less than 1 μg/ml)) | < 10 | – | 2.3 | 97.7 |
